In ChEMBL document CHEMBL4118131, “Synthesis of 1,2,4-triazole-linked urea/thiourea conjugates as cytotoxic and apoptosis inducing agents” (Bioorg Med Chem Lett, 2018):

Tests used:
Format in all cases: functional, cell-based
DU-145 = assay: Cytotoxicity in human DU145 cells assessed as reduction in cell viability incubated for 48 hrs by MTT assay; details: DU-145, 48 h
MDA-MB-231 = assay: Cytotoxicity in human MDA-MB-231 cells assessed as reduction in cell viability incubated for 48 hrs by MTT assay; details: MDA-MB-231, 48 h
A549 = assay: Cytotoxicity in human A549 cells assessed as reduction in cell viability incubated for 48 hrs by MTT assay; details: A549, 48 h
B16-F10 = assay: Cytotoxicity in mouse B16/F10 cells assessed as reduction in cell viability incubated for 48 hrs by MTT assay; details: B16-F10, 48 h
MCF7 = assay: Cytotoxicity in human MCF7 cells assessed as reduction in cell viability incubated for 48 hrs by MTT assay; details: MCF7, 48 h

SMILES	IC50 (DU-145)	IC50 (MDA-MB-231)	IC50 (A549)	IC50 (B16-F10)	IC50 (MCF7)
Cc1ccsc1CN(C(=O)Nc1cccc(Cl)c1)n1cnnc1	20.4 µM	40.3 µM	21.4 µM	> 50 µM	31.2 µM
Cc1ccsc1CN(C(=O)Nc1ccc(Cl)c(C(F)(F)F)c1)n1cnnc1	24.1 µM	29.6 µM	26.2 µM	22.1 µM	30.1 µM
O=C(Nc1ccccc1)N(Cc1ccccn1)n1cnnc1	20.2 µM	> 50 µM	24.9 µM	23.7 µM	> 50 µM
COc1ccc(CN(C(=S)Nc2cc(C(F)(F)F)cc(C(F)(F)F)c2)n2cnnc2)cc1OC	26.4 µM	25.3 µM	16.2 µM	8.54 µM	15.5 µM
Cc1ccsc1CN(C(=O)Nc1cccc(C#N)c1)n1cnnc1	31 µM	> 50 µM	26 µM	28.9 µM	> 50 µM
COc1cc(CN(C(=O)Nc2ccc(C#N)cc2)n2cnnc2)cc(OC)c1OC	20.6 µM	> 50 µM	20.7 µM	21 µM	> 50 µM
O=C(NCc1ccccc1)N(Cc1ccccn1)n1cnnc1	21.2 µM	> 50 µM	22 µM	31 µM	> 50 µM
COc1cc(CN(C(=S)Nc2ccc(C)cc2)n2cnnc2)cc(OC)c1OC	20.8 µM	> 50 µM	22.8 µM	46.8 µM	> 50 µM
COc1ccc(OC)c(CN(C(=S)Nc2ccc(C)cc2)n2cnnc2)c1	20.9 µM	> 50 µM	17.4 µM	20.7 µM	> 50 µM
CCc1ccc(NC(=S)N(Cc2ccc(OC)c(OC)c2)n2cnnc2)cc1	> 50 µM	> 50 µM	28.4 µM	22.9 µM	> 50 µM
Cc1ccc(NC(=O)N(Cc2ccccn2)n2cnnc2)cc1	21.5 µM	39.5 µM	21.9 µM	35.2 µM	38.9 µM
N#Cc1ccc(CN(C(=O)Nc2ccccc2)n2cnnc2)cc1	> 50 µM	> 50 µM	> 50 µM	34.7 µM	> 50 µM
Cc1ccsc1CN(C(=O)Nc1ccccc1)n1cnnc1	> 50 µM	> 50 µM	22.1 µM	31.1 µM	> 50 µM
